Results published in patent US3996361A, “N^6 -Substituted-9-[3-(4-phenyl-piperazino)-propyl]-adenines” (Boehringer Mannheim G.m.b.H., priority 1974, dated 1976).

Test system: PCA reaction induced by reaginic (IgE-like) antibodies to egg albumin
Test: inhibition of the passive cutaneous anaphylactic (PCA) reaction in rats induced by reaginic antibodies to egg albumin
Type: in vivo, rat
Method: Diethylcarbamazin, i.e. 1-diethylcarbamoyl-4-methylpiperazine, was used as a comparison compound. Specifically, tests were run as follows:
Serum containing reaginic (IgE-like) antibody to egg albumin was prepared by injecting rats intramuscularly with 0.1 ml of a solution of the antigen (10 mg/ml) in saline together with 0.5 ml of Bordetella pertussis vaccine (Behring; 2 × 10^10 organisms/ml). 9-14 Days later the animals were bled from the abdominal aorta; the serum was pooled and stored at -20° C until required. The titer of the serum, i.e. the highest dilution inducing passive cutaneous anaphylaxis (PCA) in the rat following a 48-hour latent period, was between 1:8 and 1:32. For use in these experiments the serum was diluted 1:24.
The animals were anesthetized with 2,2-dichloro-1,1-difluoroethyl-methyl ether, sold under the trademark Penthrane, and were sensitized by injecting 0.1 ml of the antiserum into the shaved abdominal flanks. After 48 hours for reaginic PCA, the animals were given an intravenous injection of 1 ml of saline solution containing 0.5% by weight of egg albumin and 0.25% by weight of Evans blue.
After having killed and exsanguinated the animals, the size in square millimeters and the intensity, in arbitary scores, of the resulting blue spot were determined. The product of these two parameters was used to determine the degree of the reaction and the degree of reaction with no active material was taken as the standard against which to measure % inhibition of the anaphylactic reaction.
6 Animals were used per dose level and for control.
In some instances the test material was injected intravenously (i.v.) immediately before the antigen, using a solution in water containing 0.5% HCl and 2% of dimethylformamide, and in other instances intraperitoneally (i.p.) 20 minutes before the antigen, using a suspension in water containing 1% of methylcellulose. The volume of the injection was varied to give the indicated dosage of active material.

[1] = 3 mg/kg i.p. 20 min. before antigen (ovalbumin 5 mg/animal i.v.)
[2] = 3 mg/kg i.v. immediately before antigen (ovalbumin 5 mg/animal i.v.)

Row | Structure (SMILES) | % Inhibition of PCA, i.p. (60 mg/kg i.p. 20 min. before antigen (ovalbumin 5 mg/animal i.v.)) [%] | % Inhibition of PCA, i.v. (60 mg/kg i.v. immediately before antigen (ovalbumin 5 mg/animal i.v.)) [%] | % Inhibition of PCA, i.p. [1] [%] | % Inhibition of PCA, i.v. [2] [%]
1 | CCN(CC)C(=O)N1CCN(C)CC1 [Diethylcarbamazin, 1-diethylcarbamoyl-4-methylpiperazine, reference compound] | 19 | 58 |  | 
2 | CCCCNc1ncnc2c1ncn2CCCN1CCN(c2ccccc2)CC1 [Ex. 1 (ab), N^6-n-butyl-9-[3-(4-phenyl-piperazino)-propyl]-adenine] |  |  | 69 | 
3 | CCNc1ncnc2c1ncn2CCCN1CCN(c2ccccc2)CC1 [Ex. 1 (d), N^6-ethyl-9-[3-(4-phenyl-piperazino)-propyl]-adenine] |  |  | 41 | 91
4 | CNc1ncnc2c1ncn2CCCN1CCN(c2ccc(F)cc2)CC1 [Ex. 1 (q), N^6-methyl-9-{3-[4-(4-fluorophenyl)-piperazino]-propyl}-adenine] |  |  | 57 | 
5 | CNc1ncnc2c1ncn2CCCN1CCN(c2ccc(C)cc2)CC1 [Ex. 1 (y), N^6-methyl-9-{3-[4-(4-methylphenyl)-piperazino]-propyl}-adenine] |  |  | 33 | 61
6 | CCCNc1ncnc2c1ncn2CCCN1CCN(c2ccccc2)CC1 [Ex. 2, N^6-n-Propyl-9-[3-(4-phenyl-piperazino)-propyl]-adenine] |  |  | 59 | 83
